In patent publication US4613355A, “Antibiotic having herbicidal activity” (Satoshi Omura, priority 1983, dated 1986):
Counter-ions that a name gives are not always drawn.

Legend:
Assay in all cases: Foliage treatment (Example 8)
Assay type in all cases: in vivo
Parameters in all cases: key: 0 indicates no effect; 5 indicates complete kill
[1] = tested on: Triticum aestivum; conditions: Plant No. 26 Triticum aestivum
Method: (§1) Aqueous solutions of Phosalacine (Na salt) at different concentrations were applied at a rate of 1500 liters per hectare to naturally occurring plants or plants which were cultured on plates as shown in the following Table at certain stages of growth. […] One month after the foliage treatment, the inhibition of regrowth of the plants was visually investigated.

[2] = tested on: Daucus carota; conditions: Plant No. 29 Daucus carota
Method: as §1

[3] = tested on: Digitaria adscendens; conditions: Plant No. 10 Digitaria adscendens
Method: as §1

[4] = tested on: Pueraria lobata; conditions: Plant No. 16 Pueraria lobata
Method: as §1

[5] = tested on: Imperata cyrindrica; conditions: Plant No. 15 Imperata cyrindrica
Method: as §1

[6] = tested on: Cayratia japonica; conditions: Plant No. 13 Cayratia japonica
Method: as §1

[7] = tested on: Oryzae sativa; conditions: Plant No. 25 Oryzae sativa
Method: as §1

[8] = tested on: Solanum melongena; conditions: Plant No. 31 Solanum melongena
Method: as §1

[9] = tested on: Helianthus tuberosus; conditions: Plant No. 12 Helianthus tuberosus
Method: as §1

[10] = tested on: Pleioblastus chino; conditions: Plant No. 11 Pleioblastus chino
Method: as §1

[11] = tested on: Glycine max; conditions: Plant No. 34 Glycine max
Method: (§2) Aqueous solutions of Phosalacine (Na salt) at different concentrations were applied at a rate of 1500 liters per hectare to naturally occurring plants or plants which were cultured on plates as shown in the following Table at certain stages of growth. […]

[12] = tested on: Euphonia supina; conditions: Plant No. 36 Euphonia supina
Method: as §2

[13] = tested on: Miscanthus sinensis; conditions: Plant No. 5 Miscanthus sinensis
Method: as §2

[14] = tested on: Oxalis corniculata; conditions: Plant No. 35 Oxalis corniculata
Method: as §2

[15] = tested on: Brassica oleracea; conditions: Plant No. 28 Brassica oleracea
Method: as §2

[16] = tested on: Eleucine indica var. carocana; conditions: Plant No. 24 Eleucine indica var. carocana
Method: as §2

[17] = tested on: Allium fistulosum; conditions: Plant No. 27 Allium fistulosum
Method: as §2

[18] = tested on: Artemisia princeps; conditions: Plant No. 1 Artemisia princeps
Method: as §2

[19] = tested on: Arctium lappa; conditions: Plant No. 30 Arctium lappa, 14 days
Method: as §2

[20] = tested on: Cucumis sativus; conditions: Plant No. 33 Cucumis sativus
Method: as §2

Question: With `CC(C)C[C@H](NC(=O)[C@H](C)NC(=O)[C@@H](N)CCP(C)(=O)O)C(=O)O` [Phosalacine (Na salt)] as the compound, how does the “damage to the plants, scale 0 to 5” value ([1]; 0.05%, 7 days) read?
Answer: Its value is 3.

Question: What about the “damage to the plants, scale 0 to 5” value ([1]; 0.05%, 14 days) of the same compound?
Answer: Its value is 4.

Question: And the “damage to the plants, scale 0 to 5” value ([1]; 0.1%, 7 days)?
Answer: Its value is 5.

Question: And the “damage to the plants, scale 0 to 5” value ([1]; 0.1%, 14 days)?
Answer: Its value is 5.

Question: And the “damage to the plants, scale 0 to 5” value ([2]; 0.05%, 7 days)?
Answer: The value was 3.

Question: What about the “damage to the plants, scale 0 to 5” value ([2]; 0.05%, 14 days) of the same compound?
Answer: Its value is 4.

Question: What about the “damage to the plants, scale 0 to 5” value ([2]; 0.1%, 7 days) of the same compound?
Answer: Its value is 5.

Question: And the “damage to the plants, scale 0 to 5” value ([2]; 0.1%, 14 days)?
Answer: The value was 5.

Question: And the “damage to the plants, scale 0 to 5” value ([3]; 0.05%, 7 days)?
Answer: Its value is 3.

Question: And the “damage to the plants, scale 0 to 5” value ([3]; 0.05%, 14 days)?
Answer: Its value is 4.

Question: And the “damage to the plants, scale 0 to 5” value ([3]; 0.1%, 7 days)?
Answer: The value was 5.

Question: And the “damage to the plants, scale 0 to 5” value ([3]; 0.1%, 14 days)?
Answer: The value was 5.

Question: What about the “damage to the plants, scale 0 to 5” value ([4]; 0.05%, 7 days) of the same compound?
Answer: The value was 3.

Question: And the “damage to the plants, scale 0 to 5” value ([4]; 0.05%, 14 days)?
Answer: Its value is 4.

Question: What about the “damage to the plants, scale 0 to 5” value ([4]; 0.1%, 7 days) of the same compound?
Answer: Its value is 5.

Question: And the “damage to the plants, scale 0 to 5” value ([4]; 0.1%, 14 days)?
Answer: Its value is 5.

Question: What about the “damage to the plants, scale 0 to 5” value ([5]; 0.05%, 7 days) of the same compound?
Answer: Its value is 3.

Question: What about the “damage to the plants, scale 0 to 5” value ([5]; 0.05%, 14 days) of the same compound?
Answer: Its value is 4.

Question: And the “damage to the plants, scale 0 to 5” value ([5]; 0.1%, 7 days)?
Answer: Its value is 5.

Question: And the “damage to the plants, scale 0 to 5” value ([5]; 0.1%, 14 days)?
Answer: Its value is 5.

Question: And the “damage to the plants, scale 0 to 5” value ([6]; 0.05%, 7 days)?
Answer: Its value is 3.

Question: And the “damage to the plants, scale 0 to 5” value ([6]; 0.05%, 14 days)?
Answer: The value was 4.

Question: What about the “damage to the plants, scale 0 to 5” value ([6]; 0.1%, 7 days) of the same compound?
Answer: The value was 5.

Question: And the “damage to the plants, scale 0 to 5” value ([6]; 0.1%, 14 days)?
Answer: The value was 5.

Question: What about the “damage to the plants, scale 0 to 5” value ([7]; 0.05%, 7 days) of the same compound?
Answer: The value was 3.

Question: And the “damage to the plants, scale 0 to 5” value ([7]; 0.05%, 14 days)?
Answer: Its value is 4.

Question: And the “damage to the plants, scale 0 to 5” value ([7]; 0.1%, 7 days)?
Answer: Its value is 5.

Question: And the “damage to the plants, scale 0 to 5” value ([7]; 0.1%, 14 days)?
Answer: Its value is 5.

Question: What about the “damage to the plants, scale 0 to 5” value ([8]; 0.05%, 7 days) of the same compound?
Answer: Its value is 3.

Question: And the “damage to the plants, scale 0 to 5” value ([8]; 0.05%, 14 days)?
Answer: The value was 5.

Question: What about the “damage to the plants, scale 0 to 5” value ([8]; 0.1%, 7 days) of the same compound?
Answer: The value was 5.

Question: And the “damage to the plants, scale 0 to 5” value ([8]; 0.1%, 14 days)?
Answer: The value was 5.

Question: What about the “damage to the plants, scale 0 to 5” value ([9]; 0.05%, 7 days) of the same compound?
Answer: Its value is 3.

Question: And the “damage to the plants, scale 0 to 5” value ([9]; 0.05%, 14 days)?
Answer: The value was 4.

Question: And the “damage to the plants, scale 0 to 5” value ([9]; 0.1%, 7 days)?
Answer: Its value is 5.

Question: And the “damage to the plants, scale 0 to 5” value ([9]; 0.1%, 14 days)?
Answer: The value was 5.

Question: And the “damage to the plants, scale 0 to 5” value ([10]; 0.05%, 7 days)?
Answer: Its value is 3.

Question: What about the “damage to the plants, scale 0 to 5” value ([10]; 0.05%, 14 days) of the same compound?
Answer: The value was 4.

Question: And the “damage to the plants, scale 0 to 5” value ([10]; 0.1%, 7 days)?
Answer: Its value is 5.

Question: And the “damage to the plants, scale 0 to 5” value ([10]; 0.1%, 14 days)?
Answer: Its value is 5.

Question: And the “damage to the plants, scale 0 to 5” value ([11]; 0.05%, 7 days)?
Answer: The value was 3.

Question: And the “damage to the plants, scale 0 to 5” value ([11]; 0.05%, 14 days)?
Answer: The value was 5.

Question: What about the “damage to the plants, scale 0 to 5” value ([11]; 0.1%, 7 days) of the same compound?
Answer: Its value is 5.

Question: And the “damage to the plants, scale 0 to 5” value ([11]; 0.1%, 14 days)?
Answer: Its value is 5.

Question: What about the “damage to the plants, scale 0 to 5” value ([12]; 0.05%, 7 days) of the same compound?
Answer: The value was 3.

Question: And the “damage to the plants, scale 0 to 5” value ([12]; 0.05%, 14 days)?
Answer: The value was 4.

Question: What about the “damage to the plants, scale 0 to 5” value ([12]; 0.1%, 7 days) of the same compound?
Answer: Its value is 5.

Question: And the “damage to the plants, scale 0 to 5” value ([12]; 0.1%, 14 days)?
Answer: The value was 5.

Question: What about the “damage to the plants, scale 0 to 5” value ([13]; 0.05%, 7 days) of the same compound?
Answer: The value was 3.

Question: What about the “damage to the plants, scale 0 to 5” value ([13]; 0.05%, 14 days) of the same compound?
Answer: The value was 4.

Question: And the “damage to the plants, scale 0 to 5” value ([13]; 0.1%, 7 days)?
Answer: The value was 5.

Question: What about the “damage to the plants, scale 0 to 5” value ([13]; 0.1%, 14 days) of the same compound?
Answer: Its value is 5.

Question: What about the “damage to the plants, scale 0 to 5” value ([14]; 0.05%, 7 days) of the same compound?
Answer: Its value is 3.

Question: What about the “damage to the plants, scale 0 to 5” value ([14]; 0.05%, 14 days) of the same compound?
Answer: Its value is 4.

Question: What about the “damage to the plants, scale 0 to 5” value ([14]; 0.1%, 7 days) of the same compound?
Answer: The value was 5.

Question: And the “damage to the plants, scale 0 to 5” value ([14]; 0.1%, 14 days)?
Answer: Its value is 5.

Question: And the “damage to the plants, scale 0 to 5” value ([15]; 0.05%, 7 days)?
Answer: The value was 3.

Question: And the “damage to the plants, scale 0 to 5” value ([15]; 0.05%, 14 days)?
Answer: The value was 4.

Question: What about the “damage to the plants, scale 0 to 5” value ([15]; 0.1%, 7 days) of the same compound?
Answer: The value was 5.

Question: And the “damage to the plants, scale 0 to 5” value ([15]; 0.1%, 14 days)?
Answer: Its value is 5.

Question: And the “damage to the plants, scale 0 to 5” value ([16]; 0.05%, 7 days)?
Answer: Its value is 3.

Question: And the “damage to the plants, scale 0 to 5” value ([16]; 0.05%, 14 days)?
Answer: The value was 4.

Question: What about the “damage to the plants, scale 0 to 5” value ([16]; 0.1%, 7 days) of the same compound?
Answer: The value was 5.

Question: And the “damage to the plants, scale 0 to 5” value ([16]; 0.1%, 14 days)?
Answer: The value was 5.

Question: What about the “damage to the plants, scale 0 to 5” value ([17]; 0.05%, 7 days) of the same compound?
Answer: The value was 3.

Question: What about the “damage to the plants, scale 0 to 5” value ([17]; 0.05%, 14 days) of the same compound?
Answer: The value was 5.

Question: And the “damage to the plants, scale 0 to 5” value ([17]; 0.1%, 7 days)?
Answer: Its value is 5.

Question: What about the “damage to the plants, scale 0 to 5” value ([17]; 0.1%, 14 days) of the same compound?
Answer: The value was 5.

Question: What about the “damage to the plants, scale 0 to 5” value ([18]; 0.05%, 7 days) of the same compound?
Answer: Its value is 3.

Question: What about the “damage to the plants, scale 0 to 5” value ([18]; 0.05%, 14 days) of the same compound?
Answer: Its value is 4.

Question: What about the “damage to the plants, scale 0 to 5” value ([18]; 0.1%, 7 days) of the same compound?
Answer: Its value is 5.

Question: And the “damage to the plants, scale 0 to 5” value ([18]; 0.1%, 14 days)?
Answer: The value was 5.

Question: What about the “damage to the plants, scale 0 to 5” value ([19]; 0.05%) of the same compound?
Answer: The value was 4.

Question: What about the “damage to the plants, scale 0 to 5” value ([19]; 0.1%) of the same compound?
Answer: The value was 5.

Question: And the “damage to the plants, scale 0 to 5” value ([20]; 0.05%, 7 days)?
Answer: Its value is 3.

Question: And the “damage to the plants, scale 0 to 5” value ([20]; 0.05%, 14 days)?
Answer: Its value is 4.

Question: And the “damage to the plants, scale 0 to 5” value ([20]; 0.1%, 7 days)?
Answer: The value was 5.

Question: And the “damage to the plants, scale 0 to 5” value ([20]; 0.1%, 14 days)?
Answer: The value was 5.
